According to ChEMBL document CHEMBL1130913, “Synthesis and antibacterial in vitro activity of novel analogues of nematophin” (1998):
≈ marks a conversion by molar mass, not a printed value.

Tested on: Staphylococcus intermedius
Assay: In vitro inhibitory activity in iso sensitest agar against Staphylococcus intermedius strain ATCC 9503
Type: functional

Q: CC(C)CC(=O)C(=O)NCCc1cn(-c2ccccc2)c2ccccc12 was tested. Which MIC did it give?
A: 0.125 µg/mL (≈ 0.359 µM)

Q: Which MIC does the source give for CC(C)CC(=O)C(=O)NCCc1cn(C(C)C)c2ccccc12 here?
A: 1 µg/mL (≈ 3.18 µM)

Q: Which MIC does the source give for CC(C)CC(=O)C(=O)NCCc1cn(C)c2ccccc12 here?
A: 0.5 µg/mL (≈ 1.75 µM)

Q: Which MIC does the source give for CC(C)CC(=O)C(=O)NCCc1cn(Cc2ccccc2)c2ccccc12 here?
A: 2 µg/mL (≈ 5.52 µM)

Q: Which MIC does the source give for CCC(C)C(=O)C(=O)NC(C)Cc1c[nH]c2ccccc12 (stereo not given) here?
A: 0.5 µg/mL (≈ 1.75 µM)

Tested on: Staphylococcus intermedius
Assay: In vitro inhibitory activity in iso sensitest agar against Staphylococcus intermedius strain ATCC 29663 in addition with 5%serum
Type: functional

Q: With CC(C)CC(=O)C(=O)NCCc1cn(-c2ccccc2)c2ccccc12 as the molecule, how does the MIC read?
A: > 64 µg/mL

Q: CC(C)CC(=O)C(=O)NCCc1cn(C(C)C)c2ccccc12 was tested. Which MIC did it give?
A: 32 µg/mL (≈ 102 µM)

Q: How did the MIC turn out when CC(C)CC(=O)C(=O)NCCc1cn(C)c2ccccc12 was run?
A: 16 µg/mL (≈ 55.9 µM)

Q: For CC(C)CC(=O)C(=O)NCCc1cn(Cc2ccccc2)c2ccccc12, which MIC is on record?
A: > 64 µg/mL

Tested on: Staphylococcus aureus
Assay: In vitro inhibitory activity in iso sensitest agar against Staphylococcus aureus strain ATCC 6538
Type: functional

Q: How did the MIC turn out when CC(C)CC(=O)C(=O)NCCc1cn(-c2ccccc2)c2ccccc12 was run?
A: 0.03 µg/mL (≈ 0.0861 µM)

Q: How did the MIC turn out when CC(C)CC(=O)C(=O)NCCc1cn(C(C)C)c2ccccc12 was run?
A: 0.125 µg/mL (≈ 0.398 µM)

Q: For CC(C)CC(=O)C(=O)NCCc1cn(C)c2ccccc12, which MIC is on record?
A: 0.03 µg/mL (≈ 0.105 µM)

Q: Which MIC does the source give for CC(C)CC(=O)C(=O)NCCc1cn(Cc2ccccc2)c2ccccc12 here?
A: 1 µg/mL (≈ 2.76 µM)

Q: Which MIC does the source give for CCC(C)C(=O)C(=O)NC(C)Cc1c[nH]c2ccccc12 (stereo not given) here?
A: 1 µg/mL (≈ 3.49 µM)

Tested on: Staphylococcus hyicus
Assay: In vitro inhibitory activity in iso sensitest agar against Staphylococcus hyicus strain ATCC 9622
Type: functional

Q: CC(C)CC(=O)C(=O)NCCc1cn(C(C)C)c2ccccc12 was tested. Which MIC did it give?
A: 0.25 µg/mL (≈ 0.795 µM)

Q: Which MIC does the source give for CC(C)CC(=O)C(=O)NCCc1cn(C)c2ccccc12 here?
A: 0.03 µg/mL (≈ 0.105 µM)

Q: How did the MIC turn out when CC(C)CC(=O)C(=O)NCCc1cn(Cc2ccccc2)c2ccccc12 was run?
A: 2 µg/mL (≈ 5.52 µM)

Q: For CCC(C)C(=O)C(=O)NC(C)Cc1c[nH]c2ccccc12 (stereo not given), which MIC is on record?
A: 0.5 µg/mL (≈ 1.75 µM)

Tested on: Staphylococcus hyicus
Assay: In vitro inhibitory activity in iso sensitest agar against Staphylococcus hyicus strain ATCC 9622 in addition with 5%serum
Type: functional

Q: How did the MIC turn out when CC(C)CC(=O)C(=O)NCCc1cn(-c2ccccc2)c2ccccc12 was run?
A: > 64 µg/mL

Q: For CC(C)CC(=O)C(=O)NCCc1cn(C(C)C)c2ccccc12, which MIC is on record?
A: > 64 µg/mL

Q: For CC(C)CC(=O)C(=O)NCCc1cn(C)c2ccccc12, which MIC is on record?
A: > 64 µg/mL

Q: CC(C)CC(=O)C(=O)NCCc1cn(Cc2ccccc2)c2ccccc12 was tested. Which MIC did it give?
A: > 64 µg/mL

Tested on: Staphylococcus aureus
Assay: In vitro inhibitory activity in iso sensitest agar against Staphylococcus aureus strain ATCC 29213 in addition with 5%serum
Type: functional

Q: Which MIC does the source give for CC(C)CC(=O)C(=O)NCCc1cn(-c2ccccc2)c2ccccc12 here?
A: > 64 µg/mL

Q: With CC(C)CC(=O)C(=O)NCCc1cn(C(C)C)c2ccccc12 as the molecule, how does the MIC read?
A: 32 µg/mL (≈ 102 µM)

Q: CC(C)CC(=O)C(=O)NCCc1cn(C)c2ccccc12 was tested. Which MIC did it give?
A: 16 µg/mL (≈ 55.9 µM)

Q: Which MIC does the source give for CC(C)CC(=O)C(=O)NCCc1cn(Cc2ccccc2)c2ccccc12 here?
A: > 64 µg/mL

Tested on: Staphylococcus intermedius
Assay: In vitro inhibitory activity in iso sensitest agar against Staphylococcus intermedius strain ATCC 9503 in addition with 5%serum
Type: functional

Q: How did the MIC turn out when CC(C)CC(=O)C(=O)NCCc1cn(-c2ccccc2)c2ccccc12 was run?
A: > 64 µg/mL

Q: How did the MIC turn out when CC(C)CC(=O)C(=O)NCCc1cn(C(C)C)c2ccccc12 was run?
A: 64 µg/mL (≈ 204 µM)

Q: Which MIC does the source give for CC(C)CC(=O)C(=O)NCCc1cn(C)c2ccccc12 here?
A: 32 µg/mL (≈ 112 µM)

Q: Which MIC does the source give for CC(C)CC(=O)C(=O)NCCc1cn(Cc2ccccc2)c2ccccc12 here?
A: > 64 µg/mL

Tested on: Staphylococcus aureus
Assay: In vitro inhibitory activity in iso sensitest agar against Staphylococcus aureus strain ATCC 25923
Type: functional

Q: With CC(C)CC(=O)C(=O)NCCc1cn(-c2ccccc2)c2ccccc12 as the molecule, how does the MIC read?
A: 0.06 µg/mL (≈ 0.172 µM)

Q: With CC(C)CC(=O)C(=O)NCCc1cn(C(C)C)c2ccccc12 as the molecule, how does the MIC read?
A: 0.06 µg/mL (≈ 0.191 µM)

Q: For CC(C)CC(=O)C(=O)NCCc1cn(C)c2ccccc12, which MIC is on record?
A: 0.03 µg/mL (≈ 0.105 µM)

Q: For CC(C)CC(=O)C(=O)NCCc1cn(Cc2ccccc2)c2ccccc12, which MIC is on record?
A: 2 µg/mL (≈ 5.52 µM)

Tested on: Staphylococcus hyicus
Assay: In vitro minimum inhibitory concentration in iso sensitest agar against Staphylococcus hyicus strain ATCC 9622
Type: functional

Q: How did the MIC turn out when CC(C)CC(=O)C(=O)NCCc1cn(-c2ccccc2)c2ccccc12 was run?
A: 0.015 µg/mL (≈ 0.043 µM)

Tested on: Staphylococcus aureus
Assay: In vitro inhibitory activity in iso sensitest agar against Staphylococcus aureus strain ATCC 6538 in addition with 5%serum
Type: functional

Q: For CC(C)CC(=O)C(=O)NCCc1cn(-c2ccccc2)c2ccccc12, which MIC is on record?
A: > 64 µg/mL

Q: CC(C)CC(=O)C(=O)NCCc1cn(C(C)C)c2ccccc12 was tested. Which MIC did it give?
A: > 64 µg/mL

Q: How did the MIC turn out when CC(C)CC(=O)C(=O)NCCc1cn(C)c2ccccc12 was run?
A: > 64 µg/mL

Q: Which MIC does the source give for CC(C)CC(=O)C(=O)NCCc1cn(Cc2ccccc2)c2ccccc12 here?
A: > 64 µg/mL

Tested on: Staphylococcus hyicus
Assay: In vitro inhibitory activity in iso sensitest agar against Staphylococcus hyicus strain ATCC 9621
Type: functional

Q: How did the MIC turn out when CC(C)CC(=O)C(=O)NCCc1cn(C(C)C)c2ccccc12 was run?
A: 0.06 µg/mL (≈ 0.191 µM)

Q: How did the MIC turn out when CC(C)CC(=O)C(=O)NCCc1cn(C)c2ccccc12 was run?
A: 0.03 µg/mL (≈ 0.105 µM)

Q: With CC(C)CC(=O)C(=O)NCCc1cn(Cc2ccccc2)c2ccccc12 as the molecule, how does the MIC read?
A: 1 µg/mL (≈ 2.76 µM)

Q: With CCC(C)C(=O)C(=O)NC(C)Cc1c[nH]c2ccccc12 (stereo not given) as the molecule, how does the MIC read?
A: 1 µg/mL (≈ 3.49 µM)

Tested on: Staphylococcus aureus
Assay: In vitro inhibitory activity in iso sensitest agar against Staphylococcus aureus strain ATCC 25923 in addition with 5%serum
Type: functional

Q: With CC(C)CC(=O)C(=O)NCCc1cn(-c2ccccc2)c2ccccc12 as the molecule, how does the MIC read?
A: > 64 µg/mL

Q: CC(C)CC(=O)C(=O)NCCc1cn(C(C)C)c2ccccc12 was tested. Which MIC did it give?
A: 32 µg/mL (≈ 102 µM)

Q: With CC(C)CC(=O)C(=O)NCCc1cn(C)c2ccccc12 as the molecule, how does the MIC read?
A: 16 µg/mL (≈ 55.9 µM)

Q: With CC(C)CC(=O)C(=O)NCCc1cn(Cc2ccccc2)c2ccccc12 as the molecule, how does the MIC read?
A: > 64 µg/mL

Tested on: Staphylococcus hyicus
Assay: In vitrIn vitro inhibitory activity in iso sensitest agar against Staphylococcus hyicus strain ATCC 9621
Type: functional

Q: For CC(C)CC(=O)C(=O)NCCc1cn(-c2ccccc2)c2ccccc12, which MIC is on record?
A: 0.06 µg/mL (≈ 0.172 µM)

Tested on: Staphylococcus hyicus
Assay: In vitro inhibitory activity in iso sensitest agar against Staphylococcus hyicus strain ATCC 9621 in addition with 5%serum
Type: functional

Q: Which MIC does the source give for CC(C)CC(=O)C(=O)NCCc1cn(-c2ccccc2)c2ccccc12 here?
A: > 64 µg/mL

Q: How did the MIC turn out when CC(C)CC(=O)C(=O)NCCc1cn(C(C)C)c2ccccc12 was run?
A: > 64 µg/mL

Q: Which MIC does the source give for CC(C)CC(=O)C(=O)NCCc1cn(C)c2ccccc12 here?
A: > 64 µg/mL

Q: With CC(C)CC(=O)C(=O)NCCc1cn(Cc2ccccc2)c2ccccc12 as the molecule, how does the MIC read?
A: > 64 µg/mL

Tested on: Staphylococcus intermedius
Assay: In vitro inhibitory activity in iso sensitest agar against Staphylococcus intermedius strain ATCC 29663
Type: functional

Q: For CC(C)CC(=O)C(=O)NCCc1cn(-c2ccccc2)c2ccccc12, which MIC is on record?
A: 1 µg/mL (≈ 2.87 µM)

Q: CC(C)CC(=O)C(=O)NCCc1cn(C(C)C)c2ccccc12 was tested. Which MIC did it give?
A: 2 µg/mL (≈ 6.36 µM)

Q: CC(C)CC(=O)C(=O)NCCc1cn(C)c2ccccc12 was tested. Which MIC did it give?
A: 2 µg/mL (≈ 6.98 µM)

Q: With CC(C)CC(=O)C(=O)NCCc1cn(Cc2ccccc2)c2ccccc12 as the molecule, how does the MIC read?
A: > 64 µg/mL

Tested on: Staphylococcus aureus
Assay: In vitro inhibitory activity in iso sensitest agar against Staphylococcus aureus strain ATCC 29213
Type: functional

Q: CC(C)CC(=O)C(=O)NCCc1cn(-c2ccccc2)c2ccccc12 was tested. Which MIC did it give?
A: 0.06 µg/mL (≈ 0.172 µM)

Q: CC(C)CC(=O)C(=O)NCCc1cn(C(C)C)c2ccccc12 was tested. Which MIC did it give?
A: 0.25 µg/mL (≈ 0.795 µM)

Q: CC(C)CC(=O)C(=O)NCCc1cn(C)c2ccccc12 was tested. Which MIC did it give?
A: 0.03 µg/mL (≈ 0.105 µM)

Q: How did the MIC turn out when CC(C)CC(=O)C(=O)NCCc1cn(Cc2ccccc2)c2ccccc12 was run?
A: 2 µg/mL (≈ 5.52 µM)
